Values quoted from earlier work, collected in patent US20100136089A1, “LOCATION OF FATTY ACID ESTERS ON TAMPONS AND TOXIN […]” (priority 2008, published 2010).

System: humans
Conditions: stated as known

Q: With `CCCCCCCCCCCC(=O)OCC(O)CO` (stereo not shown) [GML, glycerol monolaurate] as the compound, how does the toxicity to humans read?
A: non toxic to humans
